# Values quoted from earlier work, collected in patent US10966960B2 (Treeway TW001 B.V., priority 2017, dated 2021).
# Conditions: 25° C.
smiles,measurement,value
"CC1=NN(c2ccccc2)C(=O)C1 [edaravone, 3-methyl-1-phenyl-2-pyrazolin-5-one]",solubility in water,~1850 µg/mL
